Like-named read-outs stand apart in the source and are kept apart here.
How the values were obtained:
[1] = ref extensive literature search, cited from earlier work
[2] = test system: hiPSC-CM (iCell Cardiomyocytes^2); test: Intracellular miRNA expression by RT-qPCR in hiPSC-CM pellets after 72-hour treatment; conditions: for hsa-miR-7-5p fold change, intracellular / hsa-miR-96-5p fold change, intracellular / hsa-miR-126-3p fold change, intracellular / hsa-miR-133b fold change, intracellular / hsa-miR-146b-5p fold change, intracellular / hsa-miR-182-5p fold change, intracellular / hsa-miR-185-3p fold change, intracellular / hsa-miR-187-3p fold change, intracellular / hsa-miR-208b-3p fold change, intracellular / hsa-miR-365a-5p fold change, intracellular / hsa-miR-[…] change, intracellular / hsa-miR-29a-5p fold change, intracellular / fold induction at 0.1 µM / fold induction at 0.3 µM / fold induction at 1 µM / fold induction at 3 µM: 72 h; for fold induction at 0.1 µM / fold induction at 0.3 µM / fold induction at 1 µM / fold induction at 3 µM: Homo sapiens
How it was run: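 After 72-hour treatment and RTCA CardioECR assessment, total RNA from hiPSC-CM pellets was reverse transcribed, pre-amplified and quantified by TaqMan RT-qPCR against a 17-miRNA panel. Triplicates were pooled, so no statistical analysis was performed.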

[3] = test system: hiPSC-CM (iCell Cardiomyocytes^2); test: RTCA CardioECR assessment (impedance and electrophysiology parameters)
How it was run: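 iCell^2 cardiomyocytes on fibronectin-coated ePlates monitored continuously by impedance for cell index, beating rate and amplitude. Field potential duration and spike amplitude were recorded from day 4–6 after monolayer formation. Data were double-normalized to DMSO control and baseline, with variability given as SD.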

[4] = hiPSC-CM, 72-hour treatment, lowest concentration causing at least 20% change from baseline
[5] = read-out: hsa-miR-7-5p fold change
[6] = read-out: hsa-miR-29a-5p fold change
[7] = read-out: hsa-miR-96-5p fold change
[8] = read-out: hsa-miR-126-3p fold change
[9] = read-out: hsa-miR-133b fold change
[10] = read-out: hsa-miR-146b-5p fold change
[11] = read-out: hsa-miR-182-5p fold change
[12] = read-out: hsa-miR-185-3p fold change
[13] = read-out: hsa-miR-187-3p fold change
[14] = read-out: hsa-miR-208b-3p fold change
[15] = read-out: hsa-miR-365a-5p fold change

In the case of `Cc1nc(Nc2ncc(C(=O)Nc3c(C)cccc3Cl)s2)cc(N2CCN(CCO)CC2)n1` [Dasatinib], the Cmax total ([1]; Supplementary Table 1) is listed as 0.97 µM, the Cmax total ([1]; Table 1) is listed as 0.97 µM and the “miRNAs hiPSC-CM pellet, MEC overall” value [2] is listed as 0.3 µM. For the same compound, the “miRNAs upregulated at the MEC overall (hiPSC-CM pellet)” value (from here on “miRNAs upregulated at the MEC overall”) [2] was “miR-96-5p, miR-133b, miR-182-5p, miR-185-3p, miR-365a-5p”, the “hsa-miR-7-5p fold change, intracellular” value ([2]; 0.3 µM) was 1.4 and the “hsa-miR-96-5p fold change, intracellular” value ([2]; 0.3 µM) was 9.0. For the same compound, the “hsa-miR-126-3p fold change, intracellular” value (shortened to “hsa-miR-126-3p fold change”) ([2]; 0.3 µM) was 1.6, the “hsa-miR-133b fold change, intracellular” value ([2]; 0.3 µM) was 2.7 and the “hsa-miR-146b-5p fold change, intracellular” value (from here on “hsa-miR-146b-5p fold change”) ([2]; 0.3 µM) was 0.8. For the same compound, the “hsa-miR-182-5p fold change, intracellular” value (from here on “hsa-miR-182-5p fold change”) ([2]; 0.3 µM) was 2.5, the “hsa-miR-185-3p fold change, intracellular” value (“hsa-miR-185-3p fold change” for short) ([2]; 0.3 µM) was 6.4 and the “hsa-miR-187-3p fold change, intracellular” value (“hsa-miR-187-3p fold change” for short) ([2]; 0.3 µM) was 1.7. For the same compound, the “hsa-miR-208b-3p fold change, intracellular” value (“hsa-miR-208b-3p fold change” for short) ([2]; 0.3 µM) was 1.2, the “hsa-miR-365a-5p fold change, intracellular” value (from here on “hsa-miR-365a-5p fold change”) ([2]; 0.3 µM) was 5.4 and the “hsa-miR-[…] change, intracellular” value ([2]; 0.3 µM) was 0.8. The “hsa-miR-7-5p fold change, intracellular” value ([2]; 1 µM) was 0.8, the “hsa-miR-29a-5p fold change, intracellular” value (from here on “hsa-miR-29a-5p fold change”) ([2]; 1 µM) was 3.6 and the “hsa-miR-96-5p fold change, intracellular” value ([2]; 1 µM) was 4.7. For the same compound, the “hsa-miR-126-3p fold change” value ([2]; 1 µM) was 2.1, the “hsa-miR-133b fold change, intracellular” value ([2]; 1 µM) was 1.6 and the “hsa-miR-146b-5p fold change” value ([2]; 1 µM) was 0.9. For the same compound, the “hsa-miR-182-5p fold change” value ([2]; 1 µM) was 0.9, the “hsa-miR-185-3p fold change” value ([2]; 1 µM) was 1.5 and the “hsa-miR-187-3p fold change” value ([2]; 1 µM) was 0.5. The “hsa-miR-208b-3p fold change” value ([2]; 1 µM) was 1.2, the “hsa-miR-365a-5p fold change” value ([2]; 1 µM) was 0.8 and the “hsa-miR-[…] change, intracellular” value ([2]; 1 µM) was 0.8. For the same compound, the “hsa-miR-7-5p fold change, intracellular” value ([2]; 3 µM) was 0.9, the “hsa-miR-29a-5p fold change” value ([2]; 3 µM) was 4.0 and the “hsa-miR-126-3p fold change” value ([2]; 3 µM) was 1.1. For the same compound, the “hsa-miR-133b fold change, intracellular” value ([2]; 3 µM) was 3.3, the “hsa-miR-146b-5p fold change” value ([2]; 3 µM) was 6.4 and the “hsa-miR-182-5p fold change” value ([2]; 3 µM) was 0.8. The “hsa-miR-185-3p fold change” value ([2]; 3 µM) was 7.9, the “hsa-miR-187-3p fold change” value ([2]; 3 µM) was 1.4 and the “hsa-miR-208b-3p fold change” value ([2]; 3 µM) was 1.2. For the same compound, the “hsa-miR-365a-5p fold change” value ([2]; 3 µM) was 0.7, the “hsa-miR-[…] change, intracellular” value ([2]; 3 µM) was 0.8 and the “hsa-miR-7-5p fold change, intracellular” value ([2]; 10 µM) was 0.5. The “hsa-miR-29a-5p fold change” value ([2]; 10 µM) was 7.4, the “hsa-miR-96-5p fold change, intracellular” value ([2]; 10 µM) was 0.5 and the “hsa-miR-126-3p fold change” value ([2]; 10 µM) was 1.8. For the same compound, the “hsa-miR-133b fold change, intracellular” value ([2]; 10 µM) was 1.1, the “hsa-miR-146b-5p fold change” value ([2]; 10 µM) was 0.4 and the “hsa-miR-182-5p fold change” value ([2]; 10 µM) was 0.4. The “hsa-miR-185-3p fold change” value ([2]; 10 µM) was 3.3, the “hsa-miR-187-3p fold change” value ([2]; 10 µM) was 0.6 and the “hsa-miR-208b-3p fold change” value ([2]; 10 µM) was 1.6. For the same compound, the “hsa-miR-365a-5p fold change” value ([2]; 10 µM) was 3.9, the “hsa-miR-[…] change, intracellular” value ([2]; 10 µM) was 0.7 and the “Cell index (CI) MEC” value [3, 4] was 1 µM. For the same compound, the “RTCA, MEC (CI)” value ([3]; hiPSC-CM, change ≥20%, Table 2) was 1 µM, the “Beating Rate MEC” value ([3]; human, 72 h) was 0.3 µM and the “Beating rate (BR) MEC” value ([3]; human, 72 h) was 0.3 µM. For the same compound, the “Cell Index MEC” value ([3]; human, 72 h) was 1 µM, the “Contractility Amplitude MEC” value ([3]; human, 72 h) was 10 µM and the “RTCA, MEC (BR)” value ([3]; human, 72 h) was 0.3 µM. The “Spike Amplitude (SA) MEC” value ([3]; human, 72 h) was 0.3 µM.
In the case of `COc1cccc2c1C(=O)c1c(O)c3c(c(O)c1C2=O)C[C@@](O)(C(=O)CO)C[C@@H]3O[C@H]1C[C@H](N)[C@@H](O)[C@H](C)O1` [Epirubicin], the Cmax total ([1]; Supplementary Table 1) is given as 16.6 µM, the Cmax total ([1]; Table 1) is given as 16.60 µM and the “miRNAs hiPSC-CM pellet, MEC overall” value [2] is given as 0.3 µM. For the same compound, the “miRNAs upregulated at the MEC overall” value [2] was “miR-7-5p, miR-29a-5p, miR-126-3p, miR-146b-5p, miR-182-5p, miR-184, miR-185-3p, miR-187-3p, miR-208b-3p, miR-365a-5p”, the “RTCA, MEC (CI)” value ([3]; hiPSC-CM, change ≥20%, Table 2) was 0.3 µM (CI, BR (Q)) and the “Beating Rate MEC” value ([3]; human, 72 h) was 0.3 µM. For the same compound, the “Beating rate (BR) MEC” value ([3]; human, 72 h) was 0.3 µM, the “Contractility Amplitude MEC” value ([3]; human, 72 h) was 0.3 µM and the “Field Potential Duration MEC” value ([3]; human, 72 h) was 0.3 µM. For the same compound, the “RTCA, MEC (BR)” value ([3]; human, 72 h) was 0.3 µM (CI, BR (Q)) and the “Spike Amplitude (SA) MEC” value ([3]; human, 72 h) was 0.3 µM.
In the case of `O=P1(N(CCCl)CCCl)NCCCO1` (stereo not drawn) [Cyclophosphamide], the Cmax total ([1]; Supplementary Table 1) is given as 126 µM, the Cmax total ([1]; Table 1) is given as 126.00 µM and the “miRNAs hiPSC-CM pellet, MEC overall” value [2] is given as 3 µM (96-5p, 182-5p, 185-3p, 208b-3p). For the same compound, the “miRNAs upregulated at the MEC overall” value [2] was 3 µM (96-5p, 182-5p, 185-3p, 208b-3p), the “Beating rate (BR) MEC” value [3, 4] was “ND (ND – not detected, magnitude of change was lower than 20%)” and the “RTCA, MEC (BR)” value ([3]; hiPSC-CM, change ≥20%, Table 2) was “ND (ND – not detected, magnitude of change was lower than 20% for CI/BR)”. The “RTCA, MEC (CI)” value ([3]; hiPSC-CM, change ≥20%, Table 2) was “ND (ND – not detected, magnitude of change was lower than 20% for CI/BR)”.
In the case of `CCC1=C[C@@H]2CN(C1)Cc1c([nH]c3ccccc13)[C@@](C(=O)OC)(c1cc3c(cc1OC)N(C)[C@H]1[C@@](O)(C(=O)OC)[C@H](OC(C)=O)[C@]4(CC)C=CCN5CC[C@]31[C@@H]54)C2` [Vinorelbine], the Cmax total ([1]; Supplementary Table 1) is listed as 0.811 µM, the Cmax total ([1]; Table 1) is listed as 0.81 µM and the “intracellular miRNA upregulation in hiPSC-CM, in words” value [2] is listed as “smallest fold change”. For the same compound, the “miRNAs hiPSC-CM pellet, MEC overall” value [2] was 0.1 µM, the “miRNAs upregulated at the MEC overall” value [2] was “miR-34a-5p, miR-146b-5p” and the fold induction at 0.1 µM [2, 5] was 1. For the same compound, the fold induction at 0.3 µM [2, 5] was 1.4, the fold induction at 1 µM [2, 5] was 0.9 and the fold induction at 3 µM [2, 5] was 1.8. For the same compound, the fold induction at 0.1 µM [2, 6] was 0.4, the fold induction at 0.3 µM [2, 6] was 1.1 and the fold induction at 1 µM [2, 6] was 0.2. For the same compound, the fold induction at 3 µM [2, 6] was 0.9, the fold induction at 0.1 µM [2, 7] was 1.3 and the fold induction at 0.3 µM [2, 7] was 4.8. It also gave a fold induction at 1 µM [2, 7] of 0.9, a fold induction at 0.1 µM [2, 8] of 1.4 and a fold induction at 0.3 µM [2, 8] of 2. The fold induction at 1 µM [2, 8] was 0.6, the fold induction at 3 µM [2, 8] was 0.2 and the fold induction at 0.1 µM [2, 9] was 0.1. The fold induction at 0.3 µM [2, 9] was 0.2, the fold induction at 1 µM [2, 9] was 0.3 and the fold induction at 3 µM [2, 9] was 0.1. The fold induction at 0.1 µM [2, 10] was 3.1, the fold induction at 0.3 µM [2, 10] was 1.1 and the fold induction at 1 µM [2, 10] was 0.1. For the same compound, the fold induction at 3 µM [2, 10] was 0.2, the fold induction at 0.1 µM [2, 11] was 0.7 and the fold induction at 1 µM [2, 11] was 0.1. It also gave a fold induction at 0.1 µM [2, 12] of 1.2, a fold induction at 0.3 µM [2, 12] of 1.9 and a fold induction at 1 µM [2, 12] of 0.9. It also gave a fold induction at 3 µM [2, 12] of 0.6, a fold induction at 0.1 µM [2, 13] of 1.1 and a fold induction at 0.3 µM [2, 13] of 0.9. It also gave a fold induction at 1 µM [2, 13] of 0.8, a fold induction at 3 µM [2, 13] of 0.3 and a fold induction at 0.1 µM [2, 14] of 0.8. For the same compound, the fold induction at 0.3 µM [2, 14] was 1.7, the fold induction at 1 µM [2, 14] was 0.7 and the fold induction at 3 µM [2, 14] was 0.8. The fold induction at 0.3 µM [2, 15] was 2.4, the fold induction at 1 µM [2, 15] was 0.1 and the “Cell index (CI) MEC” value [3, 4] was 0.1 µM. The “RTCA, MEC (CI)” value ([3]; hiPSC-CM, change ≥20%, Table 2) was 0.1 µM, the “Beating Rate MEC” value ([3]; human, 72 h) was 1 µM and the “Beating rate (BR) MEC” value ([3]; human, 72 h) was 1 µM. For the same compound, the “Cell Index MEC” value ([3]; human, 72 h) was 0.1 µM, the “Contractility Amplitude MEC” value ([3]; human, 72 h) was 0.1 µM and the “Field Potential Duration MEC” value ([3]; human, 72 h) was 1 µM. For the same compound, the “RTCA, MEC (BR)” value ([3]; human, 72 h) was 1 µM and the “Spike Amplitude (SA) MEC” value ([3]; human, 72 h) was 0.1 µM.

Reference: PMC12332266 (Frontiers in Pharmacology, 2025)
